Assay results published in PMC11054573, “Identification of Ureidocoumarin-Based Selective Discoidin Domain Receptor 1 (DDR1) Inhibitors via Drug Repurposing Approach, Biological Evaluation, and In Silico Studies” (Pharmaceuticals, 2024).
Like-named read-outs stand apart in the source and are kept apart here.

Columns and labels:
DDR1 = DDR1 (Homo sapiens, UniProt Q08345); experiment: RBC radiometric HotSpot kinase assay, DDR1; conditions: for inhibition at 10 µM: read-out: % Inhibition at 10 μM (SEM) DDR1; for SI: Selectivity index (IC50 DDR2/IC50 DDR1): DDR1 over DDR2
Experimental: (§4) All compounds in this study were tested against DDR1 and DDR2 at a 10 µM dose at Reaction Biology Corporation (RBC, Malvern, PA, USA) employing the radiometric HotSpot Kinase assay protocol (Table 1).

DDR2 = biological target: T1, DDR2 (Homo sapiens, UniProt Q16832); experiment: RBC radiometric HotSpot kinase assay, DDR2; conditions: for inhibition at 10 µM: read-out: % Inhibition at 10 μM (SEM) DDR2
T1 sequence (Q16832 22-855): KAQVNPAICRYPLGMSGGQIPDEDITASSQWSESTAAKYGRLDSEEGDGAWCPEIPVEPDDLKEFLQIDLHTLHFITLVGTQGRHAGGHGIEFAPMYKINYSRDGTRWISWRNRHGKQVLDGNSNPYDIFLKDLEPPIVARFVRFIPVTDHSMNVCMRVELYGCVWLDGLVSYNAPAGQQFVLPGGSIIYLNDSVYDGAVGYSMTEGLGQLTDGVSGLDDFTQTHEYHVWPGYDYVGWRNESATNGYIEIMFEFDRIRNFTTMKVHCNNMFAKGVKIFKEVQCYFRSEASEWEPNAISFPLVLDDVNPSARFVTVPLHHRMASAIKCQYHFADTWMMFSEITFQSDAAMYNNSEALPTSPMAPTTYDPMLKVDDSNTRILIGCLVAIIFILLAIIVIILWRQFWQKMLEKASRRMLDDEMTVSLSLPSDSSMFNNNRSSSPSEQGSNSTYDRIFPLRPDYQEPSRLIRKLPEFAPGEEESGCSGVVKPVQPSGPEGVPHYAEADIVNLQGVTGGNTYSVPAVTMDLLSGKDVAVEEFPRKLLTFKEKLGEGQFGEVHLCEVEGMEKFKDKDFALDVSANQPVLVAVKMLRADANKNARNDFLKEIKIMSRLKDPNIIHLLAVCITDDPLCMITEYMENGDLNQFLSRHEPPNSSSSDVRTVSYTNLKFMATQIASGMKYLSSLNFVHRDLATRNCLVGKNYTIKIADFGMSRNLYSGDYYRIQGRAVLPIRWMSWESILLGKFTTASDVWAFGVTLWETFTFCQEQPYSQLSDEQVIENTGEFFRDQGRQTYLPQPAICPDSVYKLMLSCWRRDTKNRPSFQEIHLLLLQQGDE
Experimental: as §4

T47D breast cancer cells [1] = experiment: NCI SRB antiproliferative assay, T47D; assay type: cell-based; conditions: Homo sapiens; for inhibition at 10 µM: read-out: % Growth inhibition at 10 µM T47D; for GI50: five-dose testing
Experimental: (§1) Six members, 3a, 3g–j, and 3q, out of the investigated compounds were further evaluated for their antiproliferative effects against human cancer cell lines, including leukemia (K562), colon cancer (HCT116), non-small cell lung (NSCL) cancer (A549, NCI-H23 and NCI-H460), and breast cancer (MCF-7 and T47D) cells. The tested cell lines’ choice depended on their elevated DDR1 expression levels. The cell lines were all treated with a 10 µM concentration of the tested compounds, and the results were expressed as the percentage of growth inhibition (%GI) (Table 4).
(§2) Inhibition of the tumor relevant carbonic anhydrases IX and XII may be one of these additional mechanisms.
(§3) The evaluation of the antiproliferative activities of compounds 3a, 3g–j, and 3q over a panel of DDR1-dependent cell lines was conducted employing the sensitive Sulforhodamine B (SRB) assay at the National Cancer Institute (NCI), Bethesda, Maryland, USA, following the standard protocol.

[2] = tested on: NCI-H460 non-small cell lung cancer cells; experiment: NCI SRB antiproliferative assay, NCI-H460; assay type: cell-based; conditions: Homo sapiens; for inhibition at 10 µM: read-out: % Growth inhibition at 10 µM NCI-H460; for GI50: five-dose testing
Experimental: as §1, §2, §3

[3] = tested on: A549 non-small cell lung cancer cells; experiment: NCI SRB antiproliferative assay, A549; assay type: cell-based; conditions: Homo sapiens; for inhibition at 10 µM: read-out: % Growth inhibition at 10 µM A549; for GI50: five-dose testing
Experimental: as §1, §2, §3

[4] = tested on: HCT116 colon cancer cells; experiment: NCI SRB antiproliferative assay, HCT116; assay type: cell-based; conditions: Homo sapiens, HCT-116; for inhibition at 10 µM: read-out: % Growth inhibition at 10 µM HCT116; for GI50: five-dose testing
Experimental: as §1, §2, §3

K562 leukemia cells = experiment: NCI SRB antiproliferative assay, K562; assay type: cell-based; conditions: Homo sapiens; for inhibition at 10 µM: read-out: % Growth inhibition at 10 µM K562; for GI50: five-dose testing
Experimental: as §1, §2, §3

[5] = tested on: MCF-7 breast cancer cells; experiment: NCI SRB antiproliferative assay, MCF-7; assay type: cell-based; conditions: Homo sapiens, MCF7; for inhibition at 10 µM: read-out: % Growth inhibition at 10 µM MCF-7; for GI50: five-dose testing
Experimental: as §1, §2, §3

[6] = tested on: NCI-H23 non-small cell lung cancer cells; experiment: NCI SRB antiproliferative assay, NCI-H23; assay type: cell-based; conditions: Homo sapiens; for inhibition at 10 µM: read-out: % Growth inhibition at 10 µM NCI-H23; for GI50: five-dose testing
Experimental: as §1, §2, §3

[7] = tested on: A549 non-small cell lung cancer cells; conditions: reported data ref 20; cited from earlier work
T47D breast cancer cells [8] = conditions: reported data ref 20; cited from earlier work
[9] = tested on: HCT116 colon cancer cells; conditions: reported data ref 20; cited from earlier work
[10] = tested on: DDR1-dependent cancer cell lines; experiment: NCI SRB antiproliferative assay, whole panel of DDR1-dependent cell lines; assay type: cell-based, human; conditions: Homo sapiens; span over the seven cell lines; read-out: GI50 over all tested cell lines
Experimental: as §1, §2, §3

Chain of DDR1 (Q08345 19-913): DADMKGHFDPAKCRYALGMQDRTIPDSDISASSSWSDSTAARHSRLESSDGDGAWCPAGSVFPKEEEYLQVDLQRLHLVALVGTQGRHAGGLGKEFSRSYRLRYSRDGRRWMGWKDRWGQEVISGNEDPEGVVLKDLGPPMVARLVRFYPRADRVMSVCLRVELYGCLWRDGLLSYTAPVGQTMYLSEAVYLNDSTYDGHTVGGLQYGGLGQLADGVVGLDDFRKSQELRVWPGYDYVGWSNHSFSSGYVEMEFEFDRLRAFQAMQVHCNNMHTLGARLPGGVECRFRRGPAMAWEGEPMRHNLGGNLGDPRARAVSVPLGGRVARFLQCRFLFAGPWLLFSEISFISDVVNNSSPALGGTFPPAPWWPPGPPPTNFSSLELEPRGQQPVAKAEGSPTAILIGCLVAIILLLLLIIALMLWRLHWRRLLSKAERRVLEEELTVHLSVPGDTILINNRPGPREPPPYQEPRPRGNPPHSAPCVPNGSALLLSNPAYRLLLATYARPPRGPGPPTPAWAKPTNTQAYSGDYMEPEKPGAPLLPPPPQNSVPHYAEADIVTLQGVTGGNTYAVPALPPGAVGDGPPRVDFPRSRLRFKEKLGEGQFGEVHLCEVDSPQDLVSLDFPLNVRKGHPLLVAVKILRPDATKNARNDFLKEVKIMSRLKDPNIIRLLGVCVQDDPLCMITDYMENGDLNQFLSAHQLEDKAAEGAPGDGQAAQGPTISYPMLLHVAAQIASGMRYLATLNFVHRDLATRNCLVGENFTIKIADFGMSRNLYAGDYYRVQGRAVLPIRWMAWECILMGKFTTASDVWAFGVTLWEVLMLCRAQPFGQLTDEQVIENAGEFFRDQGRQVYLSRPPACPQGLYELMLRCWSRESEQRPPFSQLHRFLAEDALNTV

| inhibition at 10 µM (DDR1) | inhibition at 10 µM (DDR2) | IC50 (DDR1) | SI: Selectivity index (IC50 DDR2/IC50 DDR1) (DDR1) | IC50 (DDR2) | Structure (SMILES) | inhibition at 10 µM (T47D breast cancer cells [1]) | inhibition at 10 µM [2] | inhibition at 10 µM [3] | inhibition at 10 µM [4] | inhibition at 10 µM (K562 leukemia cells) | inhibition at 10 µM [5] | inhibition at 10 µM [6] | also measured |
| --- | --- | --- | --- | --- | --- | --- | --- | --- | --- | --- | --- | --- | --- |
| 5.83% | 0.78% |  |  |  | O=C(Nc1ccc2oc(=O)ccc2c1)Nc1ccc(F)cc1F [Compound 3m] |  |  |  |  |  |  |  |  |
| 49% | 39.3% | 2900 nM | >3.4 | > 10000 nM | O=C(Nc1ccc(Cl)c(C(F)(F)F)c1)Nc1ccc2oc(=O)ccc2c1 [Compound 3g] | 91.3% | 81.9% | 60.1% | 84.3% | 80.8% | 88.1% | 95.2% |  |
|  |  |  |  | 59.7 nM | CCN1CCN(Cc2ccc(C(=O)Nc3ccc(C)c(Oc4ccc5c(c4)CC(=O)N5)c3)cc2C(F)(F)F)CC1 [DDR1-IN-1] |  |  |  |  |  |  |  | GI50 [7]: > 10 µM; GI50 (T47D breast cancer cells [8]): > 10 µM; GI50 [9]: 8.7 µM |
| 12.6% | 6.06% |  |  |  | O=C(Nc1ccc2oc(=O)ccc2c1)c1cc(C(F)(F)F)cc(C(F)(F)F)c1 [Compound 4b] |  |  |  |  |  |  |  |  |
|  |  |  |  | 1.55 nM | Cn1ccc(-c2cncc(CNc3cc(C(=O)Nc4cccc(OC(F)(F)F)c4)ccc3F)c2)n1 [VU6015929, reference compound] |  |  |  |  |  |  |  |  |
| 48.5% | 23.3% | 2520 nM | >4.0 | > 10000 nM | O=C(Nc1cc(Cl)cc(Cl)c1)Nc1ccc2oc(=O)ccc2c1 [Compound 3j] | 96.5% | 98.8% | 83.8% | 98.6% | 84.6% | 94.5% | 106% | GI50 (T47D breast cancer cells [1]): 1930 nM; GI50 [2]: 2270 nM; GI50 [3]: 2900 nM; GI50 [4]: 2310 nM; GI50 [10]: 1930 to 2900 nM; GI50 (K562 leukemia cells): 2340 nM; GI50 [5]: 2280 nM; GI50 [6]: 2670 nM |
| 15.7% | -1.4% |  |  |  | Cc1cccc(Cl)c1NC(=O)Nc1ccc2oc(=O)ccc2c1 [Compound 3o] |  |  |  |  |  |  |  |  |
| 24.5% | 11.7% |  |  |  | O=C(Nc1ccc(C(F)(F)F)cc1)Nc1ccc2oc(=O)ccc2c1 [Compound 3b] |  |  |  |  |  |  |  |  |
| 92.7% | 83.6% | 321 nM | 7.5 | 2390 nM | O=C(Nc1cccc(C(F)(F)F)c1)Nc1ccc2oc(=O)ccc2c1 [Compound 3a] | 24.6% | 15.8% | 10.4% | 20.9% | 33.2% | 29.2% | 13.2% |  |
| 10.7% | 8.02% |  |  |  | Cc1cc(Cl)ccc1NC(=O)Nc1ccc2oc(=O)ccc2c1 [Compound 3n] |  |  |  |  |  |  |  |  |
| 5.82% | 3.77% |  |  |  | O=C(Nc1ccc2oc(=O)ccc2c1)c1ccc(Cl)c(C(F)(F)F)c1 [Compound 4a] |  |  |  |  |  |  |  |  |

| Structure (SMILES) | inhibition at 10 µM (DDR1) | inhibition at 10 µM (DDR2) | IC50 (DDR1) | SI: Selectivity index (IC50 DDR2/IC50 DDR1) (DDR1) | IC50 (DDR2) | inhibition at 10 µM (T47D breast cancer cells [1]) | inhibition at 10 µM [2] | inhibition at 10 µM [3] | inhibition at 10 µM [4] | inhibition at 10 µM (K562 leukemia cells) | inhibition at 10 µM [5] | inhibition at 10 µM [6] | also measured |
| --- | --- | --- | --- | --- | --- | --- | --- | --- | --- | --- | --- | --- | --- |
| O=C(Nc1cc(C(F)(F)F)cc(C(F)(F)F)c1)Nc1ccc2oc(=O)ccc2c1 [Compound 3i] | 77.1% | 67.3% | 1530 nM | 12.4 | 19000 nM | 95.2% | 93.6% | 84.8% | 97.9% | 86.3% | 96.2% | 100% | GI50 (T47D breast cancer cells [1]): 1340 nM; GI50 [2]: 690 nM; GI50 [3]: 1590 nM; GI50 [4]: 732 nM; GI50 (K562 leukemia cells): 550 nM; GI50 [5]: 1940 nM; GI50 [6]: 940 nM |
